Turning to `*C(=O)Nc1ccc(Oc2ccc(-c3ccc(Oc4ccc(NC(=O)c5ccc6c(c5)C(=O)N(c5ccc(C)c(N7C(=O)c8ccc(*)cc8C7=O)c5)C6=O)cc4)cc3)cc2)cc1` (repeat unit), the glass transition temperature worked out at 299.00 °C. Take `*C(=O)Nc1ccc(Oc2ccccc2-c2ccccc2Oc2ccc(NC(=O)c3ccc4c(c3)C(=O)N(c3ccc(C)c(N5C(=O)c6ccc(*)cc6C5=O)c3)C4=O)cc2)cc1` (repeat unit): the glass transition temperature worked out at 266.00 °C. The same measure for `*C(=O)c1ccc2c(c1)C(=O)N(c1ccc(-c3cc(-c4ccc(OC)cc4)cc(-c4ccc(N5C(=O)c6ccc(*)cc6C5=O)cc4)n3)cc1)C2=O` (repeat unit): 331.00 °C; for `*C(=O)c1ccc2c(c1)C(=O)N(c1ccc(-c3cc(-c4ccc(OCCCC#N)cc4)cc(-c4ccc(N5C(=O)c6ccc(*)cc6C5=O)cc4)n3)cc1)C2=O` (repeat unit): 342.00 °C; for `*C(=O)c1ccc2c(c1)C(=O)N(c1ccc(-c3ccc(N4C(=O)c5ccc(*)cc5C4=O)c(C)c3)cc1C)C2=O` (repeat unit): 365.00 °C. The compound `*C(=O)c1ccc2c(c1)C(=O)N(c1ccc(C(C)(C)c3ccc(C(C)(C)c4ccc(N5C(=O)c6ccc(*)cc6C5=O)cc4)cc3)cc1)C2=O` (repeat unit) came in with a glass transition temperature of 322.00 °C. The same measure for `*C(=O)c1ccc2c(c1)C(=O)N(c1ccc3c(c1)C(=O)c1cc(N4C(=O)c5ccc(*)cc5C4=O)ccc1-3)C2=O` (repeat unit): 331.00 °C; for `*C(=O)c1ccc2c(c1)C(=O)N(c1cccc(C(=O)c3ccc(Cc4ccc(C(=O)c5cccc(N6C(=O)c7ccc(*)cc7C6=O)c5)cc4)cc3)c1)C2=O` (repeat unit): 260.50 °C; for `*C(=O)c1ccc2c(c1)C(=O)N(c1cccc(C(=O)c3ccc(Oc4ccc(N5C(=O)c6ccc(*)cc6C5=O)cc4)cc3)c1)C2=O` (repeat unit): 251.00 °C. Next, `*C1=C(c2ccc(-c3ccc4c(c3)C(CCCCCC)(CCCCCC)c3cc(-c5ccc(*)cc5)ccc3-4)cc2)C(=O)N(CCCC)C1=O` (repeat unit): 155.00 °C; `*CCCCCCCCCCCCCCc1ccc(-c2c(-c3ccccc3)cc(-c3cccc(-c4cc(-c5ccccc5)c(-c5ccc(*)cc5)c(-c5ccccc5)c4-c4ccccc4)c3)c(-c3ccccc3)c2-c2ccccc2)cc1` (repeat unit): 160.00 °C; `*CCCCCCCCCCc1ccc(-c2c(-c3ccccc3)cc(-c3cccc(-c4cc(-c5ccccc5)c(-c5ccc(*)cc5)c(-c5ccccc5)c4-c4ccccc4)c3)c(-c3ccccc3)c2-c2ccccc2)cc1` (repeat unit): 180.00 °C. Next, `*CCCCCCN1C(=O)C(=O)N(c2ccc(C)c(N3C(=O)C(=O)N(*)C3=O)c2)C1=O` (repeat unit): 181.50 °C; `*CCCCCCN1C(=O)C(=O)N(c2ccc(CCc3ccccc3N3C(=O)C(=O)N(*)C3=O)cc2)C1=O` (repeat unit): 137.00 °C; `*CCCCc1ccc(-c2c(-c3ccccc3)cc(-c3ccc(-c4cc(-c5ccccc5)c(-c5ccc(*)cc5)c(-c5ccccc5)c4-c4ccccc4)cc3)c(-c3ccccc3)c2-c2ccccc2)cc1` (repeat unit): 205.00 °C.

As to `*CCCCc1ccc(-c2c(-c3ccccc3)cc(-c3cccc(-c4cc(-c5ccccc5)c(-c5ccc(*)cc5)c(-c5ccccc5)c4-c4ccccc4)c3)c(-c3ccccc3)c2-c2ccccc2)cc1` (repeat unit), the glass transition temperature turned out to be 180.00 °C. Next, `*CCN(CCOC(=O)c1ccc([Si](C)(C)c2ccc(C(=O)O*)cc2)cc1)c1ccc(/C=C/c2ccc([N+](=O)[O-])cc2)cc1` (repeat unit): 127.00 °C; `*CNC(=O)OCC(OC(=O)NCc1ccc(C(CCC)c2ccc(*)o2)o1)c1ccco1` (repeat unit): 43.00 °C; `*CNC(=O)OCc1ccc(COCc2ccc(COC(=O)NCc3ccc(C(C)(C)c4ccc(*)o4)o3)o2)o1` (repeat unit): 39.00 °C. The same measure for `*Cc1ccc(C(C)c2ccc(CN3C(=O)c4ccc(Oc5ccc6c(c5)C(=O)N(*)C6=O)cc4C3=O)o2)o1` (repeat unit): 129.00 °C; for `*OS(=O)(=O)c1cc(S(=O)(=O)Oc2ccc(C3(c4ccc(*)cc4)CCCC3)cc2)ccc1C` (repeat unit): 134.00 °C. The compound `*Oc1ccc(S(=O)(=O)c2ccc(OC(=O)c3ccc([Si](C)(C)c4ccc(C(*)=O)cc4)cc3)cc2)cc1` (repeat unit) registered a glass transition temperature of 235.00 °C. `*c1ccc(-c2cc(-c3ccc(OCCCC#N)cc3)cc(-c3ccc(N4C(=O)c5ccc(-c6ccc7c(c6)C(=O)N(*)C7=O)cc5C4=O)cc3)n2)cc1` (repeat unit) displayed a glass transition temperature of 360.00 °C. Next, `*c1ccc(-c2cc(C(C)(C)C)c(Oc3ccc(N4C(=O)c5ccc(-c6ccc7c(c6)C(=O)N(*)C7=O)cc5C4=O)cc3C(F)(F)F)c(C(C)(C)C)c2)cc1` (repeat unit): 389.00 °C. Next, `*c1ccc(-c2ccc3c(c2)C(CCCCCCCC)(CCCCCCCC)c2cc(-c4ccc(N(*)c5ccc(N(c6ccc(C(C)(C)c7ccccc7)cc6)c6ccc(C(C)(C)c7ccccc7)cc6)cc5)cc4)ccc2-3)cc1` (repeat unit): 137.00 °C; `*c1ccc(C(C)(C)c2ccc(C(C)(C)c3ccc(N4C(=O)c5ccc(Oc6ccc7cc(Oc8ccc9c(c8)C(=O)N(*)C9=O)ccc7c6)cc5C4=O)cc3)cc2)cc1` (repeat unit): 246.00 °C.

On to `*c1ccc(C(C)(C)c2ccc(N3C(=O)c4ccc(Oc5ccc6c(c5)C(=O)N(*)C6=O)cc4C3=O)cc2)cc1` (repeat unit), for which the glass transition temperature worked out at 265.00 °C. Next, `*c1ccc(C(C)(C)c2ccc(N3C(=O)c4ccc(Oc5ccc6cc(Oc7ccc8c(c7)C(=O)N(*)C8=O)ccc6c5)cc4C3=O)cc2)cc1` (repeat unit): 236.00 °C; `*c1ccc(C(F)(F)C(*)(F)F)cc1` (repeat unit): 77.0 °C; `*c1ccc(C(c2ccc(N(*)c3ccc(C)cc3)cc2)c2ccc([N+](=O)[O-])cc2)cc1` (repeat unit): 215.00 °C. Next, `*c1ccc(C(c2ccc(N3C(=O)c4cc5c(cc4C3=O)C(C(F)(F)F)(C(F)(F)F)c3cc4c(cc3O5)C(=O)N(*)C4=O)cc2)(C(F)(F)F)C(F)(F)F)cc1` (repeat unit): 430.00 °C; `*c1ccc(C(c2ccc(OCCCC)cc2)c2ccc(N(*)c3ccc(C)cc3)cc2)cc1` (repeat unit): 170.00 °C; `*c1ccc(C(c2ccccc2)(c2ccc(-n3c(=O)c4cc5c(=O)n(*)c(=O)c5cc4c3=O)cc2)C(F)(F)F)cc1` (repeat unit): 436.00 °C. Next, `*c1ccc(C)c(N2C(=O)c3ccc(-c4ccc5c(c4)C(=O)N(*)C5=O)cc3C2=O)c1` (repeat unit): 395.00 °C; `*c1ccc(CCc2ccc(N3C(=O)C(=O)N(*)C3=O)cc2)cc1` (repeat unit): 196.00 °C; `*c1ccc(CCc2ccccc2N2C(=O)C(=O)N(c3ccc(Cc4ccc(N5C(=O)C(=O)N(*)C5=O)cc4)cc3)C2=O)cc1` (repeat unit): 198.00 °C.

Take `*c1ccc(Cc2ccc(-n3c(=O)c4cc5c(=O)n(*)c(=O)c5cc4c3=O)cc2)cc1` (repeat unit): the glass transition temperature is 351.00 °C. The same measure for `*c1ccc(Cc2ccc(N(c3ccc(C)cc3)c3ccc(-c4ccc(N(*)c5ccc(C)cc5)cc4)cc3)cc2)cc1` (repeat unit): 183.00 °C; for `*c1ccc(Cc2ccc(N3C(=O)C(C)C(SCCOCCSC4C(=O)N(c5ccc(Cc6ccc(N7C(=O)CC(C)(SCCOCCSC8(C)CC(=O)N(*)C8=O)C7=O)cc6)cc5)C(=O)C4C)C3=O)cc2)cc1` (repeat unit): 105.00 °C; for `*c1ccc(N(c2ccc(C#N)cc2)c2ccc(N3C(=O)c4ccc(Oc5ccc(C(c6ccc(Oc7ccc8c(c7)C(=O)N(*)C8=O)cc6)(C(F)(F)F)C(F)(F)F)cc5)cc4C3=O)cc2)cc1` (repeat unit): 234.00 °C. Next, `*c1ccc(N(c2ccc(C#N)cc2)c2ccc(N3C(=O)c4ccc(Oc5ccc(C6(c7ccc(Oc8ccc9c(c8)C(=O)N(*)C9=O)cc7)CCCCC6)cc5)cc4C3=O)cc2)cc1` (repeat unit): 243.00 °C; `*c1ccc(N2C(=O)c3c(c(-c4ccccc4)c(-c4ccc(-c5c(-c6ccccc6)c6c(c(-c7ccccc7)c5-c5ccccc5)C(=O)N(*)C6=O)cc4)c(-c4ccccc4)c3-c3ccccc3)C2=O)cc1` (repeat unit): 466.00 °C. As for `*c1ccc(N2C(=O)c3ccc(C(=O)c4ccc5c(c4)C(=O)N(c4ccc6[nH]c(*)nc6c4)C5=O)cc3C2=O)cc1` (repeat unit), the glass transition temperature turned out to be 412.00 °C. The same measure for `*c1ccc2c(c1)C(=O)N(c1cc(N3C(=O)c4ccc(C(*)(C(F)(F)F)C(F)(F)F)cc4C3=O)ccc1C)C2=O` (repeat unit): 335.00 °C. The same measure for `*c1ccc2c(c1)C(=O)N(c1cc(NC(=O)OCCN(CCOC(=O)Nc3cc(N4C(=O)c5ccc(C(*)(C(F)(F)F)C(F)(F)F)cc5C4=O)ccc3C)c3ccc(/N=N/c4ccc([N+](=O)[O-])cc4)cc3)ccc1C)C2=O` (repeat unit): 196.00 °C; for `*c1ccc2c(c1)C(=O)N(c1ccc(-c3cc(-c4ccc(OCCCC#N)cc4)cc(-c4ccc(N5C(=O)c6ccc(C(*)(C(F)(F)F)C(F)(F)F)cc6C5=O)cc4)n3)cc1)C2=O` (repeat unit): 339.00 °C; for `*c1ccc2c(c1)C(=O)N(c1ccc(-c3ccc(N4C(=O)c5ccc(C(*)(C(F)(F)F)C(F)(F)F)cc5C4=O)c(OCCN(CC)c4ccc(C(C#N)=C(C#N)C#N)cc4)c3)cc1OCCN(CC)c1ccc(C(C#N)=C(C#N)C#N)cc1)C2=O` (repeat unit): 222.00 °C. The same measure for `*c1ccc2c(c1)C(=O)N(c1cccc(C(C)(C)c3ccc(N4C(=O)c5ccc(C(*)(C(F)(F)F)C(F)(F)F)cc5C4=O)cc3)c1)C2=O` (repeat unit): 260.00 °C.

Source of the values: the PolyMetriX glass transition set.
